Source: ChEMBL document CHEMBL1158054, “Cytotoxic monotetrahydrofuran acetogenins from Disepalum plagioneurum” (J Nat Prod, 2006)

System: KB
Test: Cytotoxicity against human KB cells
Type: functional, cell-based

Row | SMILES | IC50 [nM]
1 | CCCCCCCCCCCC[C@@H](O)[C@H]1CC[C@H]([C@H](O)CC(CCCCC(O)CCCCCCCC2=C[C@H](C)OC2=O)OC(C)=O)O1 (some centres undefined) [PLAGIONEURIN A] | 2.4
2 | CCCCCCCCCCCC[C@H](O)[C@H]1CC[C@H]([C@@H](O)CC(CCCCC(O)CCCCCCCC2=C[C@H](C)OC2=O)OC(C)=O)O1 (some centres undefined) [PLAGIONEURIN B] | 6.5
3 | CCCCCCCCCCCC[C@@H](O)[C@H]1CC[C@H]([C@H](O)CC(CCCCC(=O)CCCCCCCC2=C[C@H](C)OC2=O)OC(C)=O)O1 (some centres undefined) [PLAGIONEURIN C] | 26
4 | CCCCCCCCCCCC[C@@H](O)[C@H]1CC[C@H]([C@H](O)CC(CCCCC(=O)CCCC[C@@H](O)CCC2=C[C@H](C)OC2=O)OC(C)=O)O1 (some centres undefined) [PLAGIONEURIN D] | 2.8
5 | CCCCCCCCCCCC[C@@H](O)[C@H]1CC[C@H]([C@H](O)CC(CCCCC(=O)CCCCC(O)CCC2=C[C@H](C)OC2=O)OC(C)=O)O1 (some centres undefined) [PLAGIONEURIN E] | 2.6
6 | CCCCCCCCCCCC[C@@H](O)[C@H]1CC[C@H]([C@H](O)CCCCC(O)CCCC[C@@H](O)CCC2=C[C@H](C)OC2=O)O1 (some centres undefined) [PLAGIONICIN A] | 2
7 | CCCCCCCCCCCC[C@@H](O)[C@H]1CC[C@@H]([C@@H](O)CCCCC(=O)CCCCC(O)CCC2=C[C@H](C)OC2=O)O1 (some centres undefined) [PLAGIONICIN B] | 1400
8 | CCCCCCCCCCCC[C@@H](O)[C@H]1CC[C@@H]([C@@H](O)CCCC(O)CCCCCC(O)C(O)CC2=C[C@H](C)OC2=O)O1 (some centres undefined) [PLAGIONICIN C] | 6
9 | CCCCCCCCCCCC[C@@H](O)[C@H]1CC[C@H]([C@H](O)CCCC(O)C(O)CCCCC(=O)CCC2=C[C@H](C)OC2=O)O1 (some centres undefined) [PLAGIONICIN D] | 26
